# Measurements as given in ChEMBL document CHEMBL1201861, “Genomics of Drug Sensitity in Cancer screening data, Wellcome Trust Sanger Institute”.
# pIC50: −log10 of the molar value.
# Experiments:
# Experiment in all cases: cells
# C3A = assay type: functional, cell-based, Homo sapiens; settings: Homo sapiens, C3A;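 further: growth inhibition of C3A human cells, quantified with a cell viability readout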
# Description: SANGER: Inhibition of human C3A cell growth in a cell viability assay.
# NCI-H69 = assay type: functional, cell-based; settings: Homo sapiens;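 further: growth inhibition of the cell line, read out with a cell viability assay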
# Description: SANGER: Inhibition of human NCI-H69 cell growth in a cell viability assay.
# UMUC3 = assay type: functional, cell-based, Homo sapiens; settings: Homo sapiens, UMUC3;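 further: growth inhibition of human UM-UC-3 cells, read out with a cell viability assay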
# Description: SANGER: Inhibition of human UM-UC-3 cell growth in a cell viability assay.
# NCI-H526 = assay type: functional, cell-based; settings: Homo sapiens;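 further: growth inhibition of the human NCI-H526 cell line, measured by a cell viability assay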
# Description: SANGER: Inhibition of human NCI-H526 cell growth in a cell viability assay.
# LS-513 = assay type: functional, cell-based, Homo sapiens; settings: Homo sapiens, LS-513
# Description: SANGER: Inhibition of human LS-513 cell growth in a cell viability assay.
# SW1088 = assay type: functional, cell-based, Homo sapiens; settings: Homo sapiens, SW1088;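 further: growth inhibition of human SW1088 cells, read out by a cell viability assay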
# Description: SANGER: Inhibition of human SW1088 cell growth in a cell viability assay.
# COLO-678 = assay type: functional, cell-based, Homo sapiens; settings: Homo sapiens, COLO-678
# Description: SANGER: Inhibition of human COLO-678 cell growth in a cell viability assay.
# L-363 = assay type: functional, cell-based; settings: Homo sapiens
# Description: SANGER: Inhibition of human L-363 cell growth in a cell viability assay.
# CAS-1 = assay type: functional, cell-based, Homo sapiens; settings: Homo sapiens, CAS-1;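 further: growth inhibition of CAS-1 cells, measured with a cell viability assay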
# Description: SANGER: Inhibition of human CAS-1 cell growth in a cell viability assay.
# HCT-116 = assay type: functional, cell-based, Homo sapiens; settings: Homo sapiens, HCT-116
# Description: SANGER: Inhibition of human HCT-116 cell growth in a cell viability assay.
# SK-MEL3 = assay type: functional, cell-based, Homo sapiens, SK-MEL-3; settings: Homo sapiens, SK-MEL3;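 further: growth inhibition of human SK-MEL-3 cells, read out with a cell viability assay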
# Description: SANGER: Inhibition of human SK-MEL-3 cell growth in a cell viability assay.
# 639-V = assay type: functional, cell-based, Homo sapiens; settings: Homo sapiens, 639-V;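 further: growth inhibition of 639-V cells, read out with a cell viability assay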
# Description: SANGER: Inhibition of human 639-V cell growth in a cell viability assay.
# CW-2 = assay type: functional, cell-based, Homo sapiens; settings: Homo sapiens, CW-2;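 further: growth inhibition of CW-2 cells, read out by a cell viability assay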
# Description: SANGER: Inhibition of human CW-2 cell growth in a cell viability assay.
# SCH = assay type: functional, cell-based, Homo sapiens; settings: Homo sapiens, SCH;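 further: growth inhibition of human SCH cells, read out in a cell viability assay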
# Description: SANGER: Inhibition of human SCH cell growth in a cell viability assay.
# MFE-280 = assay type: functional, cell-based, Homo sapiens; settings: Homo sapiens, MFE-280;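 further: growth inhibition of MFE-280 cells, determined with a cell viability readout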
# Description: SANGER: Inhibition of human MFE-280 cell growth in a cell viability assay.
# COLO-320-HSR = assay type: functional, cell-based; settings: Homo sapiens;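 further: growth inhibition of COLO-320-HSR cells, determined with a cell viability assay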
# Description: SANGER: Inhibition of human COLO-320-HSR cell growth in a cell viability assay.
# NCI-H1650 = assay type: functional, cell-based, Homo sapiens; settings: Homo sapiens, NCI-H1650;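 further: growth inhibition of human NCI-H1650 cells measured by a cell viability assay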
# Description: SANGER: Inhibition of human NCI-H1650 cell growth in a cell viability assay.
# 5637 = assay type: functional, cell-based, Homo sapiens; settings: Homo sapiens
# Description: SANGER: Inhibition of human 5637 cell growth in a cell viability assay.
# T47D = assay type: functional, cell-based, Homo sapiens; settings: Homo sapiens, T47D;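 further: growth inhibition of human T47D cells, measured with a cell viability assay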
# Description: SANGER: Inhibition of human T47D cell growth in a cell viability assay.
# NCI-H441 = assay type: functional, cell-based; settings: Homo sapiens;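 further: growth inhibition of NCI-H441 cells, read out with a cell viability assay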
# Description: SANGER: Inhibition of human NCI-H441 cell growth in a cell viability assay.
# SK-MEL-24 = assay type: functional, cell-based; settings: Homo sapiens;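 further: growth inhibition read out by a cell viability assay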
# Description: SANGER: Inhibition of human SK-MEL-24 cell growth in a cell viability assay.
# NCI-H2052 = assay type: functional, cell-based, Homo sapiens; settings: Homo sapiens, NCI-H2052;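 further: growth inhibition of NCI-H2052 cells, read out with a cell viability assay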
# Description: SANGER: Inhibition of human NCI-H2052 cell growth in a cell viability assay.
# Detroit 562 = assay type: functional, cell-based, Homo sapiens; settings: Homo sapiens, Detroit 562;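 further: growth inhibition of human Detroit 562 cells, read out by a cell viability assay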
# Description: SANGER: Inhibition of human Detroit562 cell growth in a cell viability assay.
# SW1710 = assay type: functional, cell-based, Homo sapiens; settings: Homo sapiens, SW1710;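 further: growth inhibition of SW1710 cells, determined with a cell viability assay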
# Description: SANGER: Inhibition of human SW1710 cell growth in a cell viability assay.
# VM-CUB-1 = assay type: functional, cell-based; settings: Homo sapiens;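 further: cell viability assay measuring growth inhibition of the human VM-CUB-1 cell line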
# Description: SANGER: Inhibition of human VM-CUB-1 cell growth in a cell viability assay.
# KU-19-19 = assay type: functional, cell-based, Homo sapiens; settings: Homo sapiens, KU-19-19
# Description: SANGER: Inhibition of human KU-19-19 cell growth in a cell viability assay.
# JEG-3 = assay type: functional, cell-based, Homo sapiens; settings: Homo sapiens, JEG-3;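 further: growth inhibition of human JEG-3 cells, read out with a cell viability assay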
# Description: SANGER: Inhibition of human JEG-3 cell growth in a cell viability assay.
# NB13 = assay type: functional, cell-based, Homo sapiens; settings: Homo sapiens, NB13;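 further: cell viability readout measuring growth inhibition of human NB13 cells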
# Description: SANGER: Inhibition of human NB13 cell growth in a cell viability assay.
# HT-144 = assay type: functional, cell-based, Homo sapiens; settings: Homo sapiens, HT-144
# Description: SANGER: Inhibition of human HT-144 cell growth in a cell viability assay.
# GOTO = assay type: functional, cell-based, Homo sapiens; settings: Homo sapiens, GOTO;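 further: growth inhibition of GOTO cells, read out by a cell viability assay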
# Description: SANGER: Inhibition of human GOTO cell growth in a cell viability assay.
# NB6 = assay type: functional, cell-based, Homo sapiens; settings: Homo sapiens, NB6
# Description: SANGER: Inhibition of human NB6 cell growth in a cell viability assay.
# 769-P = assay type: functional, cell-based, Homo sapiens; settings: Homo sapiens, 769-P
# Description: SANGER: Inhibition of human 769-P cell growth in a cell viability assay.
# GAK = assay type: functional, cell-based, Homo sapiens; settings: Homo sapiens, GAK;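 further: cell growth inhibition read out by a cell viability assay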
# Description: SANGER: Inhibition of human GAK cell growth in a cell viability assay.
# OMC-1 = assay type: functional, cell-based, Homo sapiens; settings: Homo sapiens, OMC-1;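 further: growth inhibition of the OMC-1 cell line, measured by a cell viability assay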
# Description: SANGER: Inhibition of human OMC-1 cell growth in a cell viability assay.
# SW1463 = assay type: functional, cell-based, Homo sapiens; settings: Homo sapiens, SW1463;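 further: growth inhibition of SW1463 cells, determined with a cell viability assay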
# Description: SANGER: Inhibition of human SW1463 cell growth in a cell viability assay.
# FTC-133 = assay type: functional, cell-based, Homo sapiens; settings: Homo sapiens, FTC-133
# SK-MES-1 = assay type: functional, cell-based, Homo sapiens; settings: Homo sapiens, SK-MES-1;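 further: growth inhibition of human SK-MES-1 cells, read out with a cell viability assay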
# Description: SANGER: Inhibition of human SK-MES-1 cell growth in a cell viability assay.
# HPAF-II = assay type: functional, cell-based, Homo sapiens; settings: Homo sapiens, HPAF-II;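 further: growth inhibition of HPAF-II cells, read out with a cell viability assay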
# Description: SANGER: Inhibition of human HPAF-II cell growth in a cell viability assay.
# HCC38 = assay type: functional, cell-based, Homo sapiens; settings: Homo sapiens, HCC38;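 further: cell viability assay on the human HCC38 cell line, with IC50 marking the concentration that inhibits cell growth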
# Description: SANGER: Inhibition of human HCC38 cell growth in a cell viability assay.
# EW-3 = assay type: functional, cell-based; settings: Homo sapiens;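 further: cell viability assay read-out, IC50 reflects inhibition of growth of the EW-3 cells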
# Description: SANGER: Inhibition of human EW-3 cell growth in a cell viability assay.
# HOS = assay type: functional, cell-based, Homo sapiens; settings: Homo sapiens, HOS;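 further: growth inhibition of human HOS cells, read out with a cell viability assay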
# Description: SANGER: Inhibition of human HOS cell growth in a cell viability assay.
# NB10 = assay type: functional, cell-based, Homo sapiens; settings: Homo sapiens, NB10;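 further: growth inhibition of NB10 cells, read out by a cell viability assay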
# Description: SANGER: Inhibition of human NB10 cell growth in a cell viability assay.
# KP-N-YN = assay type: functional, cell-based; settings: Homo sapiens;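 further: growth inhibition of KP-N-YN cells, read out with a cell viability assay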
# Description: SANGER: Inhibition of human KP-N-YN cell growth in a cell viability assay.
# NB69 = assay type: functional, cell-based, Homo sapiens; settings: Homo sapiens, NB69;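 further: growth inhibition of NB69 cells, determined by a cell viability assay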
# Description: SANGER: Inhibition of human NB69 cell growth in a cell viability assay.
# SK-MEL-30 = assay type: functional, cell-based; settings: Homo sapiens;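 further: growth inhibition of SK-MEL-30 cells, determined with a cell viability assay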
# Description: SANGER: Inhibition of human SK-MEL-30 cell growth in a cell viability assay.
# U-118-MG = assay type: functional, cell-based, Homo sapiens; settings: Homo sapiens, U-118-MG
# Description: SANGER: Inhibition of human U-118-MG cell growth in a cell viability assay.
# L-428 = assay type: functional, cell-based; settings: Homo sapiens
# Description: SANGER: Inhibition of human L-428 cell growth in a cell viability assay.
# LB996-RCC = assay type: functional, cell-based; settings: Homo sapiens
# Description: SANGER: Inhibition of human LB996-RCC cell growth in a cell viability assay.
# QIMR-WIL = assay type: functional, cell-based; settings: Homo sapiens;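 further: growth inhibition of QIMR-WIL cells, read out with a cell viability assay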
# Description: SANGER: Inhibition of human QIMR-WIL cell growth in a cell viability assay.
# ML-2 = assay type: functional, cell-based; settings: Homo sapiens;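 further: growth inhibition of ML-2 cells, measured with a cell viability readout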
# Description: SANGER: Inhibition of human ML-2 cell growth in a cell viability assay.
# CAL-27 = assay type: functional, cell-based, Homo sapiens; settings: Homo sapiens, CAL-27;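 further: Viability-based readout, IC50 reflecting inhibition of CAL-27 cell growth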
# Description: SANGER: Inhibition of human CAL-27 cell growth in a cell viability assay.
smiles,measurement,setting,value
COc1ccc(C2=N[C@@H](c3ccc(Cl)cc3)[C@@H](c3ccc(Cl)cc3)N2C(=O)N2CCNC(=O)C2)c(OC(C)C)c1 [NUTLIN-3],pIC50,C3A,< 5.10
same,pIC50,NCI-H69,< 5.10
same,pIC50,UMUC3,< 5.10
same,pIC50,NCI-H526,< 5.10
same,pIC50,LS-513,5.17
same,pIC50,SW1088,< 5.10
same,pIC50,COLO-678,< 5.10
same,pIC50,L-363,< 5.10
same,pIC50,CAS-1,< 5.10
same,pIC50,HCT-116,5.48
same,pIC50,SK-MEL3,< 5.10
same,pIC50,639-V,< 5.10
same,pIC50,CW-2,< 5.10
same,pIC50,SCH,< 5.10
same,pIC50,MFE-280,< 5.10
same,pIC50,COLO-320-HSR,< 5.10
same,pIC50,NCI-H1650,5.13
same,pIC50,5637,< 5.10
same,pIC50,T47D,< 5.10
same,pIC50,NCI-H441,< 5.10
same,pIC50,SK-MEL-24,< 5.10
same,pIC50,NCI-H2052,< 5.10
same,pIC50,Detroit 562,< 5.10
same,pIC50,SW1710,< 5.10
same,pIC50,VM-CUB-1,< 5.10
same,pIC50,KU-19-19,< 5.10
same,pIC50,JEG-3,< 5.10
same,pIC50,NB13,< 5.10
same,pIC50,HT-144,5.58
same,pIC50,GOTO,5.42
same,pIC50,NB6,< 5.10
same,pIC50,769-P,< 5.10
same,pIC50,GAK,< 5.10
same,pIC50,OMC-1,< 5.10
same,pIC50,SW1463,< 5.10
same,pIC50,FTC-133,< 5.10
same,pIC50,SK-MES-1,< 5.10
same,pIC50,HPAF-II,< 5.10
same,pIC50,HCC38,< 5.10
same,pIC50,EW-3,< 5.10
same,pIC50,HOS,< 5.10
same,pIC50,NB10,5.49
same,pIC50,KP-N-YN,< 5.10
same,pIC50,NB69,5.58
same,pIC50,SK-MEL-30,< 5.10
same,pIC50,U-118-MG,< 5.10
same,pIC50,L-428,< 5.10
same,pIC50,LB996-RCC,5.44
same,pIC50,QIMR-WIL,5.79
same,pIC50,ML-2,5.59
same,pIC50,CAL-27,< 5.10
O=C1N=C(NCc2cccs2)S/C1=C\c1ccc2ncccc2c1,pIC50,C3A,< 5.30
same,pIC50,NCI-H69,< 5.30
same,pIC50,UMUC3,5.56
same,pIC50,NCI-H526,< 5.30
same,pIC50,LS-513,< 5.30
same,pIC50,SW1088,< 5.30
same,pIC50,COLO-678,< 5.30
same,pIC50,L-363,< 5.30
same,pIC50,CAS-1,< 5.30
same,pIC50,HCT-116,< 5.30
same,pIC50,SK-MEL3,< 5.30
same,pIC50,639-V,5.64
same,pIC50,CW-2,< 5.30
same,pIC50,SCH,< 5.30
same,pIC50,MFE-280,< 5.30
same,pIC50,COLO-320-HSR,< 5.30
same,pIC50,NCI-H1650,< 5.30
same,pIC50,5637,5.51
same,pIC50,T47D,< 5.30
same,pIC50,NCI-H441,< 5.30
same,pIC50,SK-MEL-24,< 5.30
same,pIC50,NCI-H2052,< 5.30
same,pIC50,Detroit 562,< 5.30
same,pIC50,SW1710,5.79
same,pIC50,VM-CUB-1,< 5.30
same,pIC50,KU-19-19,< 5.30
same,pIC50,JEG-3,< 5.30
same,pIC50,NB13,< 5.30
same,pIC50,HT-144,< 5.30
same,pIC50,GOTO,< 5.30
same,pIC50,NB6,< 5.30
same,pIC50,769-P,< 5.30
same,pIC50,GAK,< 5.30
same,pIC50,OMC-1,< 5.30
same,pIC50,SW1463,< 5.30
same,pIC50,FTC-133,< 5.30
same,pIC50,SK-MES-1,< 5.30
same,pIC50,HPAF-II,< 5.30
same,pIC50,HCC38,< 5.30
same,pIC50,EW-3,< 5.30
same,pIC50,HOS,< 5.30
same,pIC50,NB10,< 5.30
same,pIC50,KP-N-YN,< 5.30
same,pIC50,NB69,< 5.30
same,pIC50,SK-MEL-30,< 5.30
same,pIC50,U-118-MG,< 5.30
same,pIC50,L-428,< 5.30
same,pIC50,LB996-RCC,< 5.30
same,pIC50,QIMR-WIL,< 5.30
same,pIC50,ML-2,< 5.30
same,pIC50,CAL-27,< 5.30
COc1ccc(-c2ccc3c(N4CCOC[C@@H]4C)nc(N4CCOC[C@@H]4C)nc3n2)cc1CO [AZD-8055],pIC50,C3A,< 5.70
same,pIC50,NCI-H69,5.78
same,pIC50,UMUC3,5.83
same,pIC50,NCI-H526,< 5.70
same,pIC50,LS-513,< 5.70
same,pIC50,SW1088,5.86
same,pIC50,COLO-678,< 5.70
same,pIC50,L-363,6.41
same,pIC50,CAS-1,< 5.70
same,pIC50,HCT-116,5.85
same,pIC50,SK-MEL3,5.90
same,pIC50,639-V,< 5.70
same,pIC50,CW-2,< 5.70
same,pIC50,SCH,5.99
same,pIC50,MFE-280,6.37
same,pIC50,COLO-320-HSR,< 5.70
same,pIC50,NCI-H1650,< 5.70
same,pIC50,5637,5.75
same,pIC50,T47D,6.56
same,pIC50,NCI-H441,< 5.70
same,pIC50,SK-MEL-24,< 5.70
same,pIC50,NCI-H2052,5.73
same,pIC50,Detroit 562,5.92
same,pIC50,SW1710,6.20
same,pIC50,VM-CUB-1,6.33
same,pIC50,KU-19-19,6.07
same,pIC50,JEG-3,5.80
same,pIC50,NB13,5.94
same,pIC50,HT-144,5.93
same,pIC50,GOTO,5.76
same,pIC50,NB6,< 5.70
same,pIC50,769-P,< 5.70
same,pIC50,GAK,5.88
same,pIC50,OMC-1,6.14
same,pIC50,SW1463,< 5.70
same,pIC50,FTC-133,< 5.70
same,pIC50,SK-MES-1,6.36
same,pIC50,HPAF-II,6.09
same,pIC50,HCC38,< 5.70
same,pIC50,EW-3,7.39
same,pIC50,HOS,6.24
same,pIC50,NB10,< 5.70
same,pIC50,KP-N-YN,< 5.70
same,pIC50,NB69,6.87
same,pIC50,SK-MEL-30,< 5.70
same,pIC50,U-118-MG,5.73
same,pIC50,L-428,< 5.70
same,pIC50,LB996-RCC,< 5.70
same,pIC50,QIMR-WIL,6.35
same,pIC50,ML-2,6.23
same,pIC50,CAL-27,< 5.70
